Data on one molecule can be found in patent US10183915B2, “Axially chiral isomers, and preparation methods therefor and pharmaceutical uses thereof” (MEDSHINE DISCOVERY INC., priority 2015, dated 2019).

Like-named read-outs stand apart in the source and are kept apart here.

Usually half-life stands for the time in which the quantity being followed falls by half. Lower therefore signals fast loss. Usually Cmax stands for the peak of the concentration-time curve. By Tmax is commonly meant the time at which the peak concentration occurs.

A short description of this data set: In vivo pharmacokinetic study in male Sprague-Dawley rats (IV and PO). More on the design: species or system Sprague-Dawley rat. The following applies: for MRT inf: read-out: MRT0-inf. On the procedure:
Test 6: In Vivo Pharmacokinetic Study of the Test Compounds in Rats
To study the pharmacokinetic behavior of the compounds in rats and to evaluate their pharmacokinetic characteristics, their concentrations in plasma were determined by LC/MS/MS.
Appropriate amount of sample was added to a certain amount of pure water, the pH were adjusted to 7-8, to prepare to be 1 mg/mL (filtered and clarified) and 2 mg/mL (with a few particles of suspension) for IV and PO administration. • 2.4 Administration • 18 male SD rats were randomly assigned to 6 treatment groups, 3 rats in each group. Male rats were administrated IV and PO respectively after fasting overnight. The IV dosage was 2 mg/kg, the dose volume was 2 mL/kg, the PO dosage was 10 mg/kg, and the dose volume was 5 mL/kg. 3. Experimental Procedure
For IV group, 250 μL blood samples were collected before administration, and 0.083, 0.25, 0.5, 1, 2, 4, 8, 24 hours after administration, and placed in K2-EDTA anticoagulant tube, centrifuged at 3000 rpm for 15 minutes, plasma was separated, stored at −80° C. For PO Group, blood samples were collected before administration, and 0.25, 0.5, 1, 2, 4, 8, 24 hours after administration, and the other operations were the same as group IV. The content of the test compounds in the plasma of rats after administration of IV and PO were determined by LC/MS/MS method. The linear range of the assay was 6.00-18000 nM, and the lower limit of quantification was 6 nM; the plasma samples were analyzed by pretreatment with precipitated proteins.

Where [1] appears, read: male SD rats, IV 2 mpk, 2 mg/kg.
Where [2] appears, read: male, Sprague-Dawley, rat, plasma, iv, 2 mg/kg, male SD rats, IV 2 mpk.
Setting [3] is: male, Sprague-Dawley, rat, plasma, po, 10 mg/kg, male SD rats, PO 10 mpk.

Consider `O=C(O)CSc1nnc(Br)n1-c1ccc(C2CC2)c2ccccc12` (single isomer, unassigned) [(+)-Lesinurad], for which, for the setting “SD rats, IV and PO”, the “Transformation of the atropisomer in vivo” value was “no transformation was observed”. Further, under setting [1], the AUC0-inf worked out at 15.03902 ± 1.0268 µM·h and the Cl is on record as 5.50 ± 0.36 mL/min/kg. Also, the Bioavailability (male SD rats, PO 10 mpk vs IV 2 mpk) came out at 44.65%. This molecule also displayed an AUC0-inf (male SD rats, PO 10 mpk, 10 mg/kg) of 32.68473 ± 13.43235 µM·h. For the same molecule, under setting [2], the C0 was 11.5 ± 2.72 µM, the half-life is 1.61 ± 0.11 h and the MRT inf worked out at 2.08 ± 0.08 h. The Vd (male, Sprague-Dawley, rat, plasma, iv, 2 mg/kg, male SD rats, IV 2 mpk, read-out: Vdss) was determined as 0.69 ± 0.03 L/kg. Also, under setting [3], the concentration peaked (Cmax) at 7.76 ± 5.15 µM, the half-life was 2.25 ± 0.02 h and the MRT inf turned out to be 4.09 ± 0.87 h. Moreover, under “male, Sprague-Dawley, rat, plasma, po, 10 mg/kg, male SD rats, PO 10 mpk, read-out: Tmax”, the Tmax was found to be 3 ± 1.73 h.
